These are literature values, as cited in patent US9481636B2, “N-benzylaniline derivative and uses thereof” (Nanjing Medical University, priority 2011, dated 2016).

The test system of series [1] is mechanical hyperalgesia and thermal hyperalgesia. Particulars: pain models in rodents; Brit. J. Pharmacol., 2009, 158, 494-506; cited from earlier work.
The test system of series [2] is complete Freund's adjuvant (CFA)-induced muscle hyperalgesia. Particulars: intramuscular injection; dose-dependent; Neuroreport, 2005, 16, 485; cited from earlier work.
Series [3] concerns capsaicin-induced mechanical and thermal hyperalgesia. Particulars: intrathecal injection, Neuropharmacology, 2005, 48, 325; cited from earlier work.
Series [4] concerns glutamate-induced neuronal injury. The note with it: Nature Medicine 2010, 16, 1439-1443; cited from earlier work.
In series [5] the test system is learning and memory impairment, behavioral abnormalities. Particulars: in vivo; cited from earlier work.
The test system of series [6] is middle cerebral artery occlusion (MCAO) and reperfusion. Particulars: Nature Medicine 2010; cited from earlier work.
Series [7] relates to NMDAR-mediated pathological NO release. Particulars: Nature Medicine 2010, 16, 1439-1443; cited from earlier work.

Turning to `Oc1c(Cl)cc(Cl)cc1CNc1ccc2[nH]nnc2c1` [IC87201, 2-[(1H-benzotriazole-5-amino)methyl]-4,6-dichlorophenol], the “mechanical hyperalgesia and thermal hyperalgesia” value in series [1] is “significant inhibitory effects”.

Regarding `NC(CCCP(=O)(O)O)C(=O)O` (centres unmarked) [AP-5], in series [2], the CFA-induced muscle hyperalgesia entry is “reduce”.

Regarding `C[C@]12N[C@H](Cc3ccccc31)c1ccccc12` [MK-801], the “mechanical allodynia and thermal hyperalgesia” value in series [3] is reported as “significantly alleviate”.

As to `O=C(O)c1ccc(NCc2cc(Cl)cc(Cl)c2O)cc1O` [ZL006, 4-N-(2-hydroxy-3,5-dichlorobenzyl) aminosalicylic acid], in series [4], the “neuroprotective effect against glutamate-induced neuronal injury” value is given as “significant neuroprotective effect”. In addition, in series [5], the “learning and memory impairment, behavioral abnormalities and other side effects” value was “does not cause”. In series [6], the animal neurological deficits result is recorded as “improve” and the infarct volume result is reported as “reduce”. In addition, the “NMDAR-mediated pathological NO release” value in series [7] is listed as “reduce”.
